Entries after “also recorded” stand apart in the source; their conditions may differ. Strand notation (5' to 3'): a small letter for the sugar, then the base; units joined by * are phosphorothioate-linked, units joined directly phosphodiester-linked; [ ] holds rarer units or linkages, { } end groups; capitals alone tell only the bases. d = 2'-deoxy (DNA)
Tests used:
[1] = system: rats with post-incisional pain; test: Mechanical allodynia in rats with post-incisional pain (plantar incision); assay type: in vivo, rat; details: 6 mg/kg s.c. 48 h and 24 h before incision
Excerpt: In twenty-four rats anesthetized with Isoflurane (5% induction, 2.5% maintenance, 0.8 L/min O2 flow rate; Scott-Cassara, Argentina), the right hind paw plantar skin was cleaned and disinfected. This was followed by a 1-cm longitudinal incision distal to heel and extending towards the toes, as previously described (Xu J, et al., 2011, 24(5): 508-514). The incision involved both plantar skin and fascia. This was followed by identification and longitudinal incision of plantar […] muscle, leaving its insertions intact. After achieving homeostasica, skin was sutured using a 5-0 nylon suture, protected with an antibacterial cream and the animal was returned to its retention cage, under observation, until full recovery from anesthesia.
Rats were subcutaneously administered 6 mg/kg of IMT504, 48 and 24 h before implementing the post-incisional pain model. This was followed by pain-like behavior testing for up to 21 days after injury.
For mechanical allodynia assessment, a set of von Frey filaments (Stoelting, Ill., USA) and the modified up-down method of Dixon were used, to establish the 50% withdrawal threshold. A withdrawal threshold of 0.21 oz or less was considered an allodynic response.

[2] = system: rats with hind paw inflammation (CFA rats); test: Cold allodynia (acetone drop) in rats with CFA-induced hind paw inflammation; assay type: in vivo, rat
Description: In fifty-two rats anesthetized with Isoflurane (5% induction, 2.5% maintenance, 0.8 L/min O2 flow rate; Piramal Healthcare, UK), the right hind paw was injected intra-dermally with 100 μl of CFA (1:1, dissolved in normal saline; Sigma-Aldrich, Mo., USA), using a 1 ml syringe with a 25G needle attached. The animals (from now on, called CFA rats) were left to recover from anesthesia in a warm and quiet environment before relocating them in their corresponding cages.
In one set of experiments, called “preventive treatment”, four rats received a daily dose of 20 mg/kg IMT504 for five consecutive days and four weeks later one dose of 6 mg/kg (group a); a second group of four rats received one dose of 6mg/kg of IMT504 (group b) (FIG. 1A). Three days after the single injection of 6 mg/kg IMT504, all eight rats received intra-plantar CFA, after which they were tested for mechanical and cold allodynia during 21 days. At day 28, group b received an additional administration of IMT504 at a dose of 3 mg/kg and was evaluated until day 35.
For cold allodynia assessment, the reaction to the application of a drop of acetone onto the plantar surface of the hind paw was used. Both frequency of withdrawal and cold score (pain-like behavior intensity) were measured. […]

[3] = 6 mg/kg 3 days before CFA (FIG. 7)
[4] = 6 mg/kg 3 days before CFA, booster 3 mg/kg day 28
[5] = 20 mg/kg daily x5 plus single 6 mg/kg three days before CFA

IMT504: synthetic phosphorothioate oligodeoxynucleotide with sequence 5′-TCATCATTTTGTCATTTTGTCATT-3′ (SEQ ID No 1) (DNA dT*dC*dA*dT*dC*dA*dT*dT*dT*dT*dG*dT*dC*dA*dT*dT*dT*dT*dG*dT*dC*dA*dT*dT)
day after injury from which basal withdrawal thresholds are shown [1]: 3 days | mechanical withdrawal thresholds and responses to cold stimuli in contralateral hind paws ([1]; data not shown): remained normal | reduction of mechanical withdrawal thresholds at 6 h and 1 day after injury ([1]; vs vehicle): lower reduction of withdrawal thresholds | period after induction of inflammation during which IMT504 prevents cold allodynia [2, 3]: 1 days | time of reaching cold allodynic levels comparable to vehicle-treated rats [2, 3]: 7 days after injury | effect of an additional dose of 3 mg/kg IMT504 28 days after injury on cold allodynia [2, 4]: full anti-allodynic effect; also recorded: complete reduction in mechanical and cold allodynia | time at which the anti-allodynic effect (cold) of the reinforcement dose is lost [2, 4]: 35 days after injury | progression of cold allodynia [2, 5]: very slow increase in cold withdrawal frequency; also recorded: slow progression towards cold allodynia | time of peak of cold allodynia [2, 5]: 21 days after injury | frequency of cold allodynia ([2]; both preventive groups, twenty days after injury): 60% | time of peak of cold allodynia ([2]; single dose of 6 mg/kg only, three days before CFA): 21 days after injury | protection against cold allodynia ([2]; single dose of 6 mg/kg only, three days before CFA, 6 mg/kg): more moderate anti-allodynic effect; also recorded: milder protection against cold allodynia | cold allodynia vs injured vehicle-treated rats, days 1 and 3 after injury ([2]; single preventive dose of 6 mg/kg (FIG. 11B)): significantly lower than that observed in injured vehicle-treated rats | cold allodynia vs vehicle-treated rats, from day 7 on ([2]; single preventive dose of 6 mg/kg (FIG. 11B), differences not statistically significant): always showed lower levels of cold allodynia than vehicle-treated rats
